# Measured values: patent US12275685B2, “Oligo-benzamide analogs and their use in cancer treatment” (Board of Regents, The University of Texas System, priority 2018, dated 2025)
# Key:
# [1] = Pharmacokinetic studies of ERX-41; type: in vivo, mice
# Description: FIGS. 35A-P: ERX-41 is potent against TNBC in vivo. (FIG. 35A) Following establishment of subcutaneous MDA-MB-231 xenograft tumors (200 mm^3), 10 mg/kg single dose ERX-41 was administered either by oral or intraperitoneal route. The tumor was harvested 0, 0, 5, 1, 5, 3, 6 and 24 h after drug administration and the drug levels assayed by LC-MS/MS and graphed. (FIGS. 35B-E) Following establishment of MDA-MB-231 xenografts in mammary fat pad in vivo (100 mm^3 size), daily administration of 10 mg/kg ERX-41 or vehicle control (N=8 each group) was initiated. Tumor volumes were measured using digital calipers and graphed (FIG. 35B). Tumor weights (FIG. 35C), body weights (FIG. 35D) and extirpated tumors (FIG. 35E) at end of study are also shown. (FIGS. 35F-H) Following establishment of D2A1 syngeneic xenografts in mammary fat pad in vivo (100 mm^3 size), daily administration of 10 mg/kg ERX-41 or vehicle control (N=8 each group) was initiated. Tumor volumes were measured using digital calipers and graphed (FIG. 35F) along with tumor weights (FIG. 35G) and body weights (FIG. 35H). (FIGS. 35I-P) Effect of ERX-41 on the growth (FIG. 351, FIG. 35K, FIG. 35M, FIG. 35O) and tumor weights (FIG. 35J, FIG. 35L, FIG. 35N, FIG. 35P) of four distinct TNBC PDXs compared to vehicle. *p<0.05. **p<0.01; ***p<0.001.
# Additionally, ERX-41 was detectable within 1.5 h in established subcutaneous MDA-MB-231 xenograft tumors after oral or intraperitoneal administration (FIG. 35A). […] ERX-41 decreased tumor growth, as shown by extirpated tumor sizes at the end of study (FIG. 35C and FIG. 35E). […] The inventors validated the activity of ERX-41 in four distinct TNBC PDXs established in the mammary fat pad (FIGS. 35I-P).
# [2] = test system: xenografts of SUM-159 with LIPA KO; experiment: SUM-159 LIPA KO xenografts; type: in vivo, SCID mice; conditions: 10 mg/kg daily
# From the text: (§1) FIGS. 37A-J: The molecular target of ERX-41 in TNBC is LIPA. […] (FIG. 37B) Knockout clones of LIPA, ACACA, TMEM208, SOAT1 and ARID1A were generated in MDA-MB-231 cells and evaluated for response to ERX-41 using doseresponse curves using CellTiter-Glo assays in vitro. (FIGS. 37C-D) Effect of knockout of LIPA in SUM-159 (FIG. 37C) and MDA-MB436 (FIG. 37D) on dose response curve to ERX-41 using CellTiter-Glo assays in vitro. (FIGS. 37E-F) Dose response curves of SUM-159 parental cells and clones with LIPA KO to thapsigargin (FIG. 37E) and paclitaxel (FIG. 37F). (FIGS. 37G-H) Live cell imaging studies with SYTOX Green to examine ability of 1 μM ERX-41 to induce cell death in parental SUM-159 and SUM-159 clones with LIPA KO, with quantitation (FIG. 37G) and time-lapsed photomicrographs at 0 h and 30 h ((FIG. 37H). (FIGS. 37I-J) SCID mice were implanted with either parental SUM-159 or SUM-159 clones with LIPA KO (n=6, each group) and tumors were allowed to establish (150 mm^3). Following daily intraperitoneal administration of 10 mg/kg ERX-41, tumor sizes were measured and graphed (FIG. 37I), along with mice body weights (FIG. 37J). *p<0.05. **p<0.01; ***p<0.001.
# (§2) The molecular target of ERX-41 in TNBC is LIPA. […] Knockout clones of LIPA, SLC5A3, SMAP2, TMEM208, SOAT1 and ARID1A were generated in multiple TNBC cells and evaluated for response to ERX-41.
# [3] = test system: estrogen receptor-positive, estrogen receptor-negative and therapy resistant ERMT cells; experiment: MTT assay of TK41 on breast cancer cells; type: cell-based
# Description: FIGS. 2A-2C show the potency of TK41 (IC50 from 50-500 nM) on estrogen receptor-positive (FIG. 2A), estrogen receptor-negative (FIG. 2B) and therapy resistant ERMT (FIG. 2C) cells determined by MTT assay.
# [4] = test system: SUM-159 cells with LIPA KO; experiment: Live cell imaging of SUM-159 with LIPA KO; type: cell-based; conditions: 1 μM
# From the text: as §1, §2
# [5] = test system: normal human mammary epithelial cells (HMEC); experiment: WST, MTT or CellTiter-Glo assays in HMEC; type: cell-based; conditions: at >1 μM
# From the text: (§3) FIGS. 34A-C: Dose response curve of ERX-41 in multiple TNBC. cell lines using WST-1 assays (FIG. 34A) and CellTiter-Glo assays (FIG. 34B). […] Quantification of the number of dead cells over time seen with live cell imaging in MDAMB-231 and HMEC cells is shown.
# (§4) To evaluate the generalizability of the inventors' findings, they evaluated ERX-41 in a large number of TNBC and ERa-positive cell lines.
# TNBC cells with LIPA KO = experiment: Response of LIPA knockout TNBC cells, CellTiter-Glo; type: cell-based; conditions: LIPA KO clones
# From the text: as §1, §2
# HMEC cells = experiment: Live cell imaging with SYTOX Green, HMEC; type: cell-based, human
# From the text: as §3, §4
smiles,measurement,setting,value
CC(C)COc1cc(C(=O)Nc2ccc(C(=O)N[C@H]3CC[C@H](C)CC3)cc2OCC(C)C)ccc1NC(=O)c1ccc([N+](=O)[O-])c(OCCO)c1 [TK41],oral bioavailability,"[1]; mouse, in vivo, po",orally bioavailable
same,time of peak detectable levels in the plasma,"[1]; oral, 10 mg/kg single dose",4 h
same,time until detectable in tumors,"[1]; subcutaneous MDA-MB-231 xenograft tumors, oral or intraperitoneal",≤ 1.5 h
same,response of SUM-159 LIPA KO xenografts,[2],did not respond
same,IC50,"[3]; ER-positive, ER-negative and therapy resistant ERMT cells, MTT assay",50 to 500 nM
same,effect on endocrine therapy resistant breast cancer cells,[3]; endocrine therapy resistant breast cancer cells,very effective
same,cell death after KO of LIPA,[4],dramatic decrease in cell death
same,effect against HMEC,[5],did not have significant effect
same,cytotoxic response after knockout of LIPA,TNBC cells with LIPA KO,abrogate the cytotoxic response
same,cell death in HMEC,HMEC cells,did not significantly induce cell death
